The test system of data set [1] is Anopheles gambiae AKRON (pyrethroid and anticholinesterase resistance). Kind of data set: WHO filter paper contact toxicity bioassay. Conditions: WHO filter paper assay, 1 h exposure, mortality at 24 h, read-out: LC50 (95% CI). The class given is in vivo. As to the method:
(§1) Contact toxicity bioassays were performed on both strains of Anopheles gambiae, G3 (susceptible) and AKRON (pyrethroid and anticholinesterase resistance) according to WHO protocol. Adult female mosquitoes were 2–5 days of age and non-blood fed at the time of experimentation. Five concentrations of inhibitor dissolved in ethanol were prepared and treated by applying 2 mL of each concentration on a 180 cm^2 (12 cm×15 cm) paper. Papers were left to dry for 24 hours prior to use. Mosquitoes were chilled for three minutes on ice, after which 25 females were placed in the WHO kit holding chamber to recover for one hour. Mosquitoes were then moved to the treatment chamber, which contain the treated paper, and exposed for one hour. After the one-hour exposure, the mosquitoes were transferred back to the holding chamber and maintained on 10% sugar solution for 24 hrs. Each concentration was repeated in triplicate. […] Three LC50 values were obtained and the mean LC50 value was used for statistical analysis.
(§2) For all toxicity assays, control mortality was corrected for using Abbots formula [19]; where corrected percent mortality = (% alive in control–% alive in treated) /% alive in control.

Data set [2] concerns Anopheles gambiae G3 (susceptible). Description: WHO filter paper contact toxicity bioassay. The data set is classed as in vivo. The conditions noted are these: WHO filter paper assay, 1 h exposure, mortality at 24 h, read-out: LC50 (95% CI). As to the method:
as §1, §2

A further data set deals with Drosophila melanogaster. Description: Diet (sugar-feeding) toxicity assay. The data set is classed as in vivo. The conditions noted are these: 1 mg/ml, mortality at 24 h. As to the method: Diet toxicity assays were performed on mixed sex adult Drosophila melanogaster fasted for 8 hours prior to initiating the experiment. Flies were transferred into a container stoppered with a cotton ball infused with 1 ml of a sucrose/DEET solution containing 20 insects (2–3 day old adults). The assay was run three times on three different days with matched controls. Mortality was recorded at the 24-hour time point.
as §2

Another data set has as its system acetylcholinesterase. Description: AChE inhibition, Ellman assay, summary statements across enzymes. The class given is biochemical. The conditions noted are these: abstract. An excerpt: In vitro biochemical assays utilized five acetylcholinesterase (AChE) enzymes. Recombinant human AChE (hAChE) was purchased from a commercial source (lyophilized powder, Sigma C1682, St. Louis, MO, USA). Homogenates to prepare Anopheles gambiae AChE (AgAChE) were obtained from the wild type G3 strain and the resistant AKRON strain (BEI Resources; http://www.beiresources.org/). AKRON mosquitoes (from Benin and donated by M. Akogbeto) have both knockdown resistance (kdr) to pyrethroids (L1014F sodium channel mutation) and the G119S AChE mutation (ace-1R), which confers resistance to carbamates, [15]. Both strains were cultured in the Emerging Pathogens Institute, University of Florida, Gainesville, FL, USA from eggs provided by the Center for Disease Control, Atlanta, GA, USA. Homogenates were also used to prepare Aedes aegypti AChE (AeAChE) from mosquitoes provided by the CMAVE, USDA-ARS, Gainesville, FL, USA; Musca domestica AChE (MdAChE) from flies cultured in the Department of Entomology and Nematology, Medical Entomology Laboratory, University of Florida, Gainesville, FL, USA); and Drosophila melanogaster AChE (DmAChE) from flies (Oregon-R strain) cultured in the Emerging Pathogens Institute, University of Florida, Gainesville, FL, USA. Homogenate enzymes were prepared from groups of ten non-blood fed adult female mosquitoes, five whole bodied Drosophila, or three Musca heads homogenized in 1 mL of ice-cold sodium phosphate buffer (0.1 M sodium phosphate, pH 7.8) with an electric motor driven glass tissue homogenizer. The homogenate was centrifuged at 5000×g using a Sorvall Fresco refrigerated centrifuge at 4 °C for 5 minutes. […]
Inhibition of AChE was determined using the Ellman assay and was based on the method outlined in Carlier et al.. […] Changes in absorbance were recorded by a DYNEX Triad spectrophotometer (DYNEX Technologies, Chantilly, VA, USA) at 405 nm. Enzyme concentrations used were within the linear range, therefore eliminating the need for protein quantification.

Data set [3] deals with sodium channels in neonatal rat cortical neurons. Description: Patch clamp of rat cortical neurons, sodium currents. The data set is classed as cell-based. How it is done: (§3) Rat cortical neurons (purchased from Lonza, Walkersville, MD, USA) were placed on poly-lysine coated glass cover slips in 35 mm dishes, and cultured in primary neuron basal medium with added 2% neural grown factor and 1% glutamine (from Lonza). The medium was half changed every 3 days, and the cells were used at 6–12 days. The neurons had dendrites and axons and the diameters of the somata were about 15–20 µm. Cells were cultured on cover slips and were immersed in 35 mm Petri dishes filled with room temperature extracellular saline. Patch pipettes were pulled from borosilicate glass capillaries with filament (BF150-86-10, Sutter Instrument, Novato CA, USA) on a P-1000 Flaming/Brown micropipette puller (Sutter Instrument). Extracellular solution was the same regardless of the target ion channel and contained: 140 mM NaCl, 5 mM KCl, 2 mM MgCl2, 2 mM CaCl2, 10 mM glucose, and 10 mM HEPES (pH = 7.4). Intracellular patch solution for potassium channel recordings consisted of: 140 mM KF, 10 mM NaCl, 2 mM MgCl2, and 10 mM HEPES (pH = 7.2). Intracellular patch solution for sodium channel recordings consisted of: 140 mM CsCH3SO3 10 mM NaCl, 2 mM MgCl2, 10 mM HEPES (pH = 7.2), where CsCH3SO3 was used to eliminate potassium currents during sodium channel analysis. The patch electrodes had resistances of 5–7 MOhms.
Patch clamp recordings were performed with a 40x/0.80W water immersion objective (working distance 3.5 mm) using a forced-air-cooled Photometrics Evolve 512/CCD97 camera system. Following gigaseal formation, the membrane was ruptured through a brief, manual suction of the electrode, or by a 2 msec long zap pulse. Currents were amplified with the use of a patch-clamp amplifier (Axopatch 200B, Molecular Devices LLC, Sunnyvale, CA, USA) and processed for analysis via A/D-converter (Digidata 1440A, Molecular Devices LLC). Recordings underwent series resistance compensation, low-pass filtering at 1 kHz, and were sampled at 10 kHz or 100 kHz for potassium and sodium currents, respectively. For recording and analyzing data, pClamp 10.0 software (Molecular Devices LLC) was used.
Background: The patch-clamp technique gives a direct electrical read-out from membranes.

The subject of data set [4] is potassium channels (Kv2 delayed rectifier) in neonatal rat cortical neurons. Kind of data set: Patch clamp of rat cortical neurons, potassium currents. The data set is classed as cell-based. How it is done:
as §3, with “MOhms. […]” for “MOhms.”

Structures are written as SMILES. ≈ marks a conversion by molar mass, not a printed value. Bounds are passed on as bounds.

Regarding `CCN(CC)C(=O)c1cccc(C)c1` [DEET, N, N-diethyl-meta-toluamide], the results for the LC50 in data set [1] and in data set [2] were 2700 µg/mL (≈ 14.1 mM) and 1900 µg/mL (≈ 9.93 mM), respectively. For the same molecule, in the data set on Drosophila melanogaster, the “toxicity in sugar-feeding assay” value is reported as “non-toxic”. The acetylcholinesterase inhibition with acetylcholinesterase (10 mM) was less than 10%. For the same molecule, the IC50 (in general, the concentration needed to halve the response being measured) on acetylcholinesterase (Drosophila melanogaster, Musca domestica, and human acetylcholinesterases) was 6 to 12 mM; in data set [3] (read-out: IC50 against sodium channels), roughly 0.7 mM. Besides, in data set [3] (1 mM), the “block of inward sodium currents in words” value is on record as “completely blocked”. Moreover, the “sodium current amplitude restored by washout” value in data set [3] (after 1 mM block) is “approximately 50%”. Also, the “control current amplitude restored by washout” value in data set [4] is “approximately 50%”.

The values above are taken from article PMC4125160, “Neurotoxicity and Mode of Action of N, N-Diethyl-Meta-Toluamide (DEET)” (PLoS ONE, 2014).
